Results published in patent US9434711B2 (Janssen Pharmaceutica, NV, priority 2007, dated 2016).
pIC50: −log10 of the molar value.

Molecular target: canine TRPM8 (Canis lupus familiaris, UniProt Q1A7N1)
Test: In Vitro Canine TRPM8 Functional Assay (Ca2+ fluorescence, icilin activation)
Type: cell-based
Details: for pIC50: HEK293 cells stably expressing canine TRPM8, icilin activation, eight-point dose-response, read-out: IC50; for inhibition at 0.5 µM: compound at 0.5 μM, read-out: % Inh @ 0.5
Experimental: The functional activity of compounds of the formula (I) was determined by measuring changes in intracellular calcium concentration using a Ca^2+-sensitive fluorescent dye. The changes in fluorescent signal were monitored by a fluorescence plate reader, either a FLIPR™ (Molecular Devices) or FDSS (Hamamatsu).
At 24 hrs prior to assay, HEK293 cells stably expressing canine TRPM8 were seeded in culture medium in black wall, clear-base poly-D-lysine coated 384-well plates (BD Biosciences, NJ, USA) and grown overnight in 5% CO2 at 37° C. On assay day, growth media was removed and cells were loaded with Calcium 3 Dye (Molecular Devices) for 35 min at 37° C., under 5% CO2 and then for 25 min at room temperature and atmosphere. Subsequently, cells were tested for agonist-induced increases in intracellular Ca^2+ levels using FLIPR™ or FDSS. Cells were challenged with a compound of the Formula (I) (at varying concentrations) and intracellular Ca^2+ was measured for 5 min prior to the addition of icilin to all wells to achieve a final concentration that produces approximately an 80% maximal response. EC50 or IC50 values for compounds of the present invention were determined from eight-point dose-response studies. Curves were generated using the average of quadruplicate wells for each data point.

[1] = canine TRPM8, icilin activation

canine TRPM8, sequence (Q1A7N1 1-1104): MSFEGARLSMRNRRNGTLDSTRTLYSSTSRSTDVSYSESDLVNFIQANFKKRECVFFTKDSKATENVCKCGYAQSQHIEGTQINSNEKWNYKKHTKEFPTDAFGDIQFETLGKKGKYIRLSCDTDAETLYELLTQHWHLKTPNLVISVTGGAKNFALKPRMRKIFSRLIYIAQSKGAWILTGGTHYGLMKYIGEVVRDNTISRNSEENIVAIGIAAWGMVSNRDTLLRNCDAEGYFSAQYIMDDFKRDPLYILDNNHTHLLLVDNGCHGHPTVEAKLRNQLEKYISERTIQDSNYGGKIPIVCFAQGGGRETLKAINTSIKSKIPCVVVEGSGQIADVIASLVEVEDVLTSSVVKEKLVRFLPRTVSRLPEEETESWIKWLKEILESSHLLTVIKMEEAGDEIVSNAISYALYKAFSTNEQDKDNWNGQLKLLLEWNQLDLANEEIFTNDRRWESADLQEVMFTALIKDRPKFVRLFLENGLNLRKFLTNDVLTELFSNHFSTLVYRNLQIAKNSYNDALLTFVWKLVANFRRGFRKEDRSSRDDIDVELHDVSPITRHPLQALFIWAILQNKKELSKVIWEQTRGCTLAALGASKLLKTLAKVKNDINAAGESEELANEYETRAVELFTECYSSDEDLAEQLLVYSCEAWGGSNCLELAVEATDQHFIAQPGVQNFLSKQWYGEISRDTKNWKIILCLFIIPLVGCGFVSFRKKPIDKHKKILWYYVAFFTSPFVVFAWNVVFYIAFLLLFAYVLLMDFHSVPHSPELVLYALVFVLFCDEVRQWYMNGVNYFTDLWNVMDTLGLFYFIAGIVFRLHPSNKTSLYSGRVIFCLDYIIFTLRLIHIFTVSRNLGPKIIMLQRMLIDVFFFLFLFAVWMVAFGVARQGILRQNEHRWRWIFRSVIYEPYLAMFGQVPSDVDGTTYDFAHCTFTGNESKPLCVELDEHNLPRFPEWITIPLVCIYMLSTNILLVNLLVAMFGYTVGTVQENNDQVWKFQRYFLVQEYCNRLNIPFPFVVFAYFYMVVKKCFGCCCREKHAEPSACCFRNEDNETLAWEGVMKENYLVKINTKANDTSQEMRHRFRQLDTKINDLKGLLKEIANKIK

Row | pIC50 | inhibition at 0.5 µM [1] [%] | inhibition at 0.2 µM (compound at 0.2 μM, canine TRPM8, icilin activation, read-out: % Inh @ 0.2) [%] | Structure (SMILES)
1 | 8.06 | 100 | – | O=S(=O)(c1ccccc1)N(Cc1ccc(F)c(F)c1)c1sc2ccccc2c1Cl [Compound 24, N-(3-Chloro-benzo[b]thiophen-2-yl)-N-(3,4-difluoro-benzyl)-benzenesulfonamide]
2 | 7.68 | 99 | – | COc1cccc(S(=O)(=O)N(Cc2ccc(F)c(F)c2)c2sc3ccccc3c2C)c1 [Compound 25, N-(3,4-Difluoro-benzyl)-N-(3-methyl-benzo[b]thiophen-2-yl)-3-methoxy-benzenesulfonamide]
3 | 7.70 | 98 | – | COc1ccc(S(=O)(=O)N(Cc2ccc(F)c(F)c2)c2sc3ccccc3c2C)cc1 [Compound 26, N-(3,4-Difluoro-benzyl)-N-(3-methyl-benzo[b]thiophen-2-yl)-4-methoxy-benzenesulfonamide]
4 | 7.92 | 100 | – | Cc1c(N(Cc2ccc(F)c(F)c2)S(=O)(=O)c2ccc3ncccc3c2)sc2ccccc12 [Compound 30, N-(3,4-Difluoro-benzyl)-N-(3-methyl-benzo[b]thiophen-2-yl)-quinoline-6-sulfonamide]
5 | 7.24 | 100 | – | O=S(=O)(c1cccnc1)N(Cc1ccc(F)c(F)c1)c1cc2ccccc2s1 [Compound 33, N-(Benzo[b]thiophen-2-yl)-N-(3,4-difluoro-benzyl)-pyridine-3-sulfonamide]
6 | 6.73 | 98 | – | CS(=O)(=O)N(Cc1ccc(F)c(F)c1)c1cc2ccccc2s1 [Compound 34, N-Benzo[b]thiophen-2-yl-N-(3,4-difluoro-benzyl)-methanesulfonamide]
7 | 7.22 | 100 | – | CCS(=O)(=O)N(Cc1ccc(F)c(F)c1)c1cc2ccccc2s1 [Compound 35, N-(Benzo[b]thiophen-2-yl)-N-(3,4-difluoro-benzyl)-ethanesulfonamide]
8 | 7.11 | 98 | – | CCCS(=O)(=O)N(Cc1ccc(F)c(F)c1)c1cc2ccccc2s1 [Compound 36, N-(Benzo[b]thiophen-2-yl)-N-(3,4-difluoro-benzyl)-propane-1-sulfonamide]
9 | 7.01 | 96 | – | CCCCS(=O)(=O)N(Cc1ccc(F)c(F)c1)c1cc2ccccc2s1 [Compound 37, N-(Benzo[b]thiophen-2-yl)-N-(3,4-difluoro-benzyl)-butane-1-sulfonamide]
10 | 8.27 | 99 | – | CCS(=O)(=O)N(Cc1ccc(F)c(F)c1)c1sc2ccccc2c1C [Compound 41, N-(3,4-Difluoro-benzyl)-N-(3-methyl-benzo[b]thiophen-2-yl)-ethanesulfonamide]
11 | 7.60 | 94 | – | CCS(=O)(=O)N(Cc1ccc(F)c(C(F)(F)F)c1)c1cc2ccccc2s1 [Compound 43, N-(Benzo[b]thiophen-2-yl)-N-(4-fluoro-3-trifluoromethyl-benzyl)-ethanesulfonamide]
12 | 8.15 | 98 | – | Cc1c(N(Cc2ccc(F)c(F)c2)S(=O)(=O)N(C)C)sc2ccccc12 [Compound 44, N-(3,4-Difluoro-benzyl)-N-(3-methyl-benzo[b]thiophen-2-yl)-N′,N′-dimethylsulfamide]
13 | 7.28 | – | 97 | CS(=O)(=O)N(Cc1ccc(F)c(C(F)(F)F)c1)c1cc2ccccc2s1 [Compound 45, N-(Benzo[b]thiophen-2-yl)-N-(4-fluoro-3-trifluoromethyl-benzyl)-methanesulfonamide]
14 | 7.08 | 99 | – | O=S(=O)(c1ccccc1)N(Cc1ccc(Cl)cc1)c1cc2ccccc2s1 [Compound 46, N-(Benzo[b]thiophen-2-yl)-N-(4-chloro-benzyl)-benzenesulfonamide]
15 | 7.10 | 98 | – | COc1cccc(CN(c2cc3ccccc3s2)S(=O)(=O)c2ccccc2)c1 [Compound 48, N-(Benzo[b]thiophen-2-yl)-N-(3-methoxy-benzyl)-benzenesulfonamide]

The remaining lines, values behind:

Row | Structure (SMILES) | pIC50 | inhibition at 0.5 µM [1] [%] | inhibition at 0.2 µM (compound at 0.2 μM, canine TRPM8, icilin activation, read-out: % Inh @ 0.2) [%]
16 | Cc1c(N(Cc2ccc(F)c(F)c2)S(=O)(=O)c2cccc3cccnc23)sc2ccccc12 [Compound 20, N-(3,4-Difluoro-benzyl)-N-(3-methyl-benzo[b]thiophen-2-yl)-quinoline-8-sulfonamide] | 8.22 | 98 | –
17 | Cc1c(N(Cc2ccc(OC(F)(F)F)cc2)S(=O)(=O)c2cccc3cccnc23)sc2ccccc12 [Compound 21, N-(3-Methyl-benzo[b]thiophen-2-yl)-N-(4-trifluoromethoxy-benzyl)-quinoline-8-sulfonamide] | 7.82 | 98 | –
18 | Cc1c(N(Cc2cccc3cccnc23)S(=O)(=O)c2cccc3cccnc23)sc2ccccc12 [Compound 22, N-(3-Methyl-benzo[b]thiophen-2-yl)-N-(quinolin-8-ylmethyl)-quinoline-8-sulfonamide] | 7.49 | 98 | –
19 | O=S(=O)(c1ccccc1)N(Cc1cccc(F)c1)c1sc2ccccc2c1Cl [Compound 23, N-(3-Chloro-benzo[b]thiophen-2-yl)-N-(3-fluoro-benzyl)-benzenesulfonamide] | 7.59 | 99 | –
20 | Cc1c(N(Cc2ccc(F)c(F)c2)S(=O)(=O)c2cccc3cnccc23)sc2ccccc12 [Compound 27, N-(3,4-Difluoro-benzyl)-N-(3-methyl-benzo[b]thiophen-2-yl)-isoquinoline-5-sulfonamide] | 7.70 | 99 | –
21 | Cc1c(N(Cc2ccc(OC(F)(F)F)cc2)S(=O)(=O)c2cccc3cnccc23)sc2ccccc12 [Compound 28, N-(3-Methyl-benzo[b]thiophen-2-yl)-N-(4-trifluoromethoxy-benzyl)-isoquinoline-5-sulfonamide] | 7.49 | 100 | –
22 | Cc1c(N(Cc2cccc3cccnc23)S(=O)(=O)c2cccc3cnccc23)sc2ccccc12 [Compound 29, N-(3-Methyl-benzo[b]thiophen-2-yl)-N-(quinolin-8-ylmethyl)-isoquinoline-5-sulfonamide] | 7.48 | 99 | –
23 | Cc1c(N(Cc2ccc(OC(F)(F)F)cc2)S(=O)(=O)c2ccc3ncccc3c2)sc2ccccc12 [Compound 31, N-(3-Methyl-benzo[b]thiophen-2-yl)-N-(4-trifluoromethoxy-benzyl)-quinoline-6-sulfonamide] | 7.66 | 100 | –
24 | Cc1c(N(Cc2cccc3cccnc23)S(=O)(=O)c2ccc3ncccc3c2)sc2ccccc12 [Compound 32, N-(3-Methyl-benzo[b]thiophen-2-yl)-N-(quinolin-8-ylmethyl)-quinoline-6-sulfonamide] | 7.43 | 100 | –
25 | Cc1c(N(Cc2ccc(C(F)(F)F)c(F)c2)S(=O)(=O)c2cccs2)sc2ccccc12 [Compound 38, N-(3-Fluoro-4-trifluoromethyl-benzyl)-N-(3-methyl-benzo[b]thiophen-2-yl)-thiophene-2-sulfonamide] | 8.52 | 97 | –
26 | Cc1c(N(Cc2ccc(F)c(C(F)(F)F)c2)S(=O)(=O)c2cccnc2)sc2ccccc12 [Compound 39, N-(4-Fluoro-3-trifluoromethyl-benzyl)-N-(3-methyl-benzo[b]thiophen-2-yl)-pyridine-3-sulfonamide] | 8.41 | 101 | –
27 | CCS(=O)(=O)N(Cc1ccc(F)c(C(F)(F)F)c1)c1sc2ccccc2c1C [Compound 40, N-(4-Fluoro-3-trifluoromethyl-benzyl)-N-(3-methyl-benzo[b]thiophen-2-yl)-ethanesulfonamide] | 7.86 | 97 | –
28 | CCS(=O)(=O)N(Cc1ccc(OC(F)(F)F)cc1)c1sc2ccccc2c1C [Compound 42, N-(3-Methyl-benzo[b]thiophen-2-yl)-N-(4-trifluoromethoxy-benzyl)-ethanesulfonamide] | 7.97 | 100 | –
29 | COc1ccccc1CN(c1cc2ccccc2s1)S(=O)(=O)c1ccccc1 [Compound 47, N-(Benzo[b]thiophen-2-yl)-N-(2-methoxy-benzyl)-benzenesulfonamide] | 6.95 | 97 | –
30 | COc1ccc(CN(c2cc3ccccc3s2)S(=O)(=O)c2ccccc2)cc1 [Compound 49, N-(Benzo[b]thiophen-2-yl)-N-(4-methoxy-benzyl)-benzenesulfonamide] | 6.77 | 90 | –
31 | O=S(=O)(c1ccccc1)N(Cc1ccccc1F)c1cc2ccccc2s1 [Compound 50, N-(Benzo[b]thiophen-2-yl)-N-(2-fluoro-benzyl)-benzenesulfonamide] | 7.18 | 99 | –
32 | O=[N+]([O-])c1cccc(CN(c2cc3ccccc3s2)S(=O)(=O)c2ccccc2)c1 [Compound 51, N-(Benzo[b]thiophen-2-yl)-N-(3-nitro-benzyl)-benzenesulfonamide] | 7.11 | 98 | –
33 | O=S(=O)(c1ccccc1)N(Cc1ccccn1)c1cc2ccccc2s1 [Compound 52, N-(Benzo[b]thiophen-2-yl)-N-(pyridin-2-ylmethyl)-benzenesulfonamide] | 6.94 | 99 | –
34 | O=S(=O)(c1ccccc1)N(Cc1cccnc1)c1cc2ccccc2s1 [Compound 53, N-(Benzo[b]thiophen-2-yl)-N-(pyridin-3-ylmethyl)-benzenesulfonamide] | 6.79 | 97 | –
